Test system: ABCA4/RDH8 mouse model
Assay: Light-induced retinal degeneration in ABCA4/RDH8 mouse model (ERG, retinal histology, SLO autofluorescence)
Assay type: in vivo
Details: 10 mg/kg twice daily IP, 10,000 lux light for 30 min on day 3
Procedure: The invention is illustrated by the following example. The compound of the invention was tested with the following experimental protocol: (1) Mice are dosed twice daily at 10 mg/kg or vehicle, IP. (2) On day 3, mice are exposed to 10,000 lux light for 30 min, 2 h after the first dosing and 6 h before the last dosing. (3) On day 11 ERG measurements are taken. (4) On day 12, mice are sacrificed for retinal histology. The ERG functional assay measures the functional integrity of retina. […] In the model, autofluorescence appears as the retina degenerates.

Cn1cc(-c2ccncc2)c(-c2ccc(OCc3ccc4ccccc4n3)cc2)n1 [MP-10, 2-[4-(1-methyl-4-pyridin-4-yl-1H-pyrazol-3-yl)-phenoxymethyl]-quinoline]
loss of ERG function (functional integrity of retina) (ERG on day 11, vs vehicle, FIG. 1): prevents loss of ERG function
autofluorescence in retina measured by SLO (FIG. 3): reduces the appearance of autofluorescence
photoreceptor cell loss (retinal histology grade; higher grade indicates more loss) (histology on day 12, FIG. 2): protects photoreceptor cell loss
